Results: paper PMC6747015, “Structure–function study of a novel inhibitor of the casein kinase 1 family in Arabidopsis thaliana” (Plant Direct, 2019)

How the values were obtained:
[1] = target: T1, Membrane protein AT5G40670 (Arabidopsis thaliana, UniProt P57758); assay: AMI‐329 bead binding with AMI‐331 competitor, membrane protein AT5G40670
T1 construct: from tissue; host or cells: Arabidopsis seedlings, two weeks old
Description: (§1) Screening for proteins bound to AMI‐329 beads was done by a method similar to what has previously been described (Uehara et al., 2019). Briefly, two‐week‐old seedlings grown under LD conditions were harvested at time points ZT2, ZT6, ZT9, and ZT17, and stored at −80°C. Proteins from the frozen plant samples were incubated with 0, 5, or 50 µM of AMI‐331 at 4°C for 30 min with rotary mixing. Two technical replicates were used for each experiment. PBS‐washed AMI‐329 beads were added to the protein samples and gently rotated at 4°C for 1 hr. AMI‐329 bead resins were washed with bead buffer (Uehara et al., 2019) six times. The washed resins were suspended in SDS sample buffer and boiled for 8 min. Protein samples were in‐gel‐digested as previously described (Uehara et al., 2019). Peptides were analyzed with a Q Exactive hybrid quadrupole‐orbitrap mass spectrometer (Thermo Fisher Scientific), as described previously (Uehara et al., 2019). […]
(§2) However, another possible mechanism for the strong AMI‐331 biological activity in vivo is that it targets proteins other than the CK1 family for period lengthening. […] It is noteworthy that kinase AT4G08800 is very similar to the CKL family, but the ATP‐binding pocket of mammalian CK1 as determined by its crystal structure (Shinohara et al., 2017) was absent from AT4G08800, as shown in an Araport 11 model (https://www.araport.org). […]

[2] = target: T2, LUP1 (AT1G78970) (Arabidopsis thaliana, UniProt Q9C5M3); assay: AMI‐329 bead binding with AMI‐331 competitor, LUP1
T2 construct: from tissue; host or cells: Arabidopsis seedlings, two weeks old
T2 sequence (Q9C5M3 whole entry): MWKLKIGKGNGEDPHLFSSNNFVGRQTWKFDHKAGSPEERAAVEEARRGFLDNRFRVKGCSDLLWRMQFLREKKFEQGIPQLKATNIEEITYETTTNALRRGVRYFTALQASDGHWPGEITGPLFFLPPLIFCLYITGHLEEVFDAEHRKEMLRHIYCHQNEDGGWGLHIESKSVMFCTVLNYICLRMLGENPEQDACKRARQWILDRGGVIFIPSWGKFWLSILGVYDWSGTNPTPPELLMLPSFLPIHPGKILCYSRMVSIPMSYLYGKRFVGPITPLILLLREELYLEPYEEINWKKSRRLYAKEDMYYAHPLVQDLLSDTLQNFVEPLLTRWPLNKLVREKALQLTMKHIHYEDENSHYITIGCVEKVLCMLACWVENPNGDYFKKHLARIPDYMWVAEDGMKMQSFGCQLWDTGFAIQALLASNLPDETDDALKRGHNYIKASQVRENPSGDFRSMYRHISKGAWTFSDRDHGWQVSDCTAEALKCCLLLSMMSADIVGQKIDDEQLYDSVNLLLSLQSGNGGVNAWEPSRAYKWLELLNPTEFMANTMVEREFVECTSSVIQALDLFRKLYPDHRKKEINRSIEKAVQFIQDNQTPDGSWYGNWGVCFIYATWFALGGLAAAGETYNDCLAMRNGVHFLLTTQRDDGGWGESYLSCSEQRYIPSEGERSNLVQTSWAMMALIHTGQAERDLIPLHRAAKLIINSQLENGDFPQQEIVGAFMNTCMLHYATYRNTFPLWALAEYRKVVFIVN
Description: as §1, §2

[3] = target: T3, CKL5 (AT2G19470) (Arabidopsis thaliana, UniProt Q9ZUP4); assay: AMI‐329 bead binding with AMI‐331 competitor, CKL5
T3 construct: from tissue; host or cells: Arabidopsis seedlings, two weeks old
T3 sequence (Q9ZUP4 whole entry): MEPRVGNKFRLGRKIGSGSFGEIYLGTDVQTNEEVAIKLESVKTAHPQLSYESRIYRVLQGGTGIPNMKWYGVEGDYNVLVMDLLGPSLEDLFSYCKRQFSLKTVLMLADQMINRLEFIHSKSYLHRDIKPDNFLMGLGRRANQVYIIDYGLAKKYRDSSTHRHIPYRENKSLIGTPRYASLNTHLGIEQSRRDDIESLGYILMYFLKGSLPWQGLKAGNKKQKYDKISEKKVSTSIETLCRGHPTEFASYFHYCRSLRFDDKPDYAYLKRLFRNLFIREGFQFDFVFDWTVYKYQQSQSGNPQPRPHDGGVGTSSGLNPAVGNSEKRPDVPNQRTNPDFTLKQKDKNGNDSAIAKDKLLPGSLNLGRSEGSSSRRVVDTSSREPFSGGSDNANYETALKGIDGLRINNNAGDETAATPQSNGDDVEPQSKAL
Description: as §1, §2

[4] = target: T4, CKL3 (AT4G28880) (Arabidopsis thaliana, UniProt Q93Z18); assay: AMI‐329 bead binding with AMI‐331 competitor, CKL3
T4 construct: from tissue; host or cells: Arabidopsis seedlings, two weeks old
T4 sequence (Q93Z18 whole entry): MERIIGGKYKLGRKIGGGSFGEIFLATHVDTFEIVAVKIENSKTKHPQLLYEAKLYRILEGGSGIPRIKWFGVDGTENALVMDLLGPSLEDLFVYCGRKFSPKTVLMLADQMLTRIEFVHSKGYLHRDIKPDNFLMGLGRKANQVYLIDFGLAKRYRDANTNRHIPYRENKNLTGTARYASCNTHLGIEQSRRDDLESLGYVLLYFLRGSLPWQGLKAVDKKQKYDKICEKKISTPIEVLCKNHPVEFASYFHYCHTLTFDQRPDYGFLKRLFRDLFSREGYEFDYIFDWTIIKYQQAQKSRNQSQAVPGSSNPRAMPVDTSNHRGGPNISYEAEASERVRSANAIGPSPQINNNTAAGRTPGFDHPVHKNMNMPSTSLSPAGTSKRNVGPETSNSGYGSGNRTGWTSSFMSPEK
Description: as §1, §2

[5] = target: T5, YAK1 (AT5G35980) (Arabidopsis thaliana, UniProt Q8RWH3); assay: AMI‐329 bead binding with AMI‐331 competitor, YAK1
T5 construct: Proteins from the frozen plant samples were incubated with 0, 5, or 50 µM of AMI‐331; from tissue; host or cells: two-week-old Arabidopsis seedlings (protein lysate)
T5 sequence (Q8RWH3 whole entry): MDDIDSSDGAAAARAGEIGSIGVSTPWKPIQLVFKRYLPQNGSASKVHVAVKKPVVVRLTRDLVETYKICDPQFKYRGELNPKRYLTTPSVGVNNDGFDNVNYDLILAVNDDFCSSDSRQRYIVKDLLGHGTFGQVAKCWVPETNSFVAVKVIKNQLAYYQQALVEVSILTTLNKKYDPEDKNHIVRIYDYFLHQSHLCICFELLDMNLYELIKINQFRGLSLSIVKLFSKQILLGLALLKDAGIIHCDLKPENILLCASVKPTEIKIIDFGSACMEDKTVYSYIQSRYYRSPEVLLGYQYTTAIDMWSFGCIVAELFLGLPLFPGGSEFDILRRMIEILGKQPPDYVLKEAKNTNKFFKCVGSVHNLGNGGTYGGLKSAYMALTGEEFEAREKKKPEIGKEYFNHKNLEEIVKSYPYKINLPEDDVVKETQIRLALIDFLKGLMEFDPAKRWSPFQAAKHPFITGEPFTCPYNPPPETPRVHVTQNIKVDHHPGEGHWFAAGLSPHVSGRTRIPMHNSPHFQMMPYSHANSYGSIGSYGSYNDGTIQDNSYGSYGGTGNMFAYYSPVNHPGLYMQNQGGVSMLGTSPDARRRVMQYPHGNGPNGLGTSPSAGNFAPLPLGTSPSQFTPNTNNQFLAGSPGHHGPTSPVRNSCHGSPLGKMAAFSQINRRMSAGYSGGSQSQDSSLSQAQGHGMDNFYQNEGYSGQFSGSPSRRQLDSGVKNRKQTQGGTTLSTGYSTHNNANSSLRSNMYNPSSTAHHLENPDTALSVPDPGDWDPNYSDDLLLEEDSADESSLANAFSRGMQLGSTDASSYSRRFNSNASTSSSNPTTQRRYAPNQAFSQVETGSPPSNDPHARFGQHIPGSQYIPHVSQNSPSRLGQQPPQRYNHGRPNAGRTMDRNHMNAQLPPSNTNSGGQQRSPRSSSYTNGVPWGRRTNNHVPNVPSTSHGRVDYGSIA
Description: as §1, §2

[6] = tested on: Kinase AT4G08800; assay: AMI‐329 bead binding with AMI‐331 competitor, kinase AT4G08800; parameters: species or system Arabidopsis thaliana
Description: as §1, §2

T1 sequence (P57758 whole entry): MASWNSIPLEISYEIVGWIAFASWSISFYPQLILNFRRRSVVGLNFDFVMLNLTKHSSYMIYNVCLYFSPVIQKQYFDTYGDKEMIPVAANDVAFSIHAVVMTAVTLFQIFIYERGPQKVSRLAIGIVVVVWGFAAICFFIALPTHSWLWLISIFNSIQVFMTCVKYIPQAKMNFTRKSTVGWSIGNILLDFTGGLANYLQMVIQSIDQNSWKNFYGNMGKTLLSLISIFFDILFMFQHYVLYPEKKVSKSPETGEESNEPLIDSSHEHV

SMILES: C#CCn1c2c(c(Br)c1-c1ccncc1)C(=O)NCC2.Cl [AMI‐331]
- Spectra (PSMs) AMI‐329 beads bound ([1]; competitor AMI‐331 5 µM): 0 PSMs
- Spectra (PSMs) AMI‐329 beads bound ([1]; competitor AMI‐331 50 µM): 0 PSMs
- Spectra (PSMs) AMI‐329 beads bound ([2]; competitor AMI‐331 5 µM): 0 PSMs
- Spectra (PSMs) AMI‐329 beads bound ([2]; competitor AMI‐331 50 µM): 0 PSMs
- Spectra (PSMs) AMI‐329 beads bound ([3]; competitor AMI‐331 5 µM): 1 PSMs
- Spectra (PSMs) AMI‐329 beads bound ([3]; competitor AMI‐331 50 µM): 0 PSMs
- Spectra (PSMs) AMI‐329 beads bound ([4]; competitor AMI‐331 5 µM): 1 PSMs
- Spectra (PSMs) AMI‐329 beads bound ([4]; competitor AMI‐331 50 µM): 0 PSMs
- Spectra (PSMs) AMI‐329 beads bound ([5]; competitor AMI‐331 5 µM): 0 PSMs
- Spectra (PSMs) AMI‐329 beads bound ([5]; competitor AMI‐331 50 µM): 0 PSMs
- Spectra (PSMs) AMI‐329 beads bound ([6]; competitor AMI‐331 5 µM): 0 PSMs
- Spectra (PSMs) AMI‐329 beads bound ([6]; competitor AMI‐331 50 µM): 0 PSMs
